Laboratory results taken from US8933224B2, “Triazine derivatives” (Pfizer Inc., priority 2013, dated 2015).

Key:
rat PDE10 enzyme = rat PDE10 enzyme (Rattus norvegicus (Rat), UniProt Q9QYJ6); experiment: PDE10 scintillation proximity assay (SPA), inhibition of rat PDE10 enzyme activity; type: biochemical; details: geometric mean of 2-4 determinations unless otherwise indicated (b: ≧5 determinations; c: single determination)
Procedure, shortened: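 SPA with fixed recombinant PDE10 (Sf21-expressed, Ni-NTA and Mono Q purified) converting ~20% of 20 nM ³H-cAMP in 50 mM TRIS pH 7.5, 1.3 mM MgCl2, 0.01% Brij, across an inhibitor range.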

[1] = target: human recombinant PDE10 enzyme (PDE10A) (Homo sapiens, UniProt Q9Y233); experiment: PDE10 scintillation proximity assay (SPA), inhibition of human recombinant PDE10 enzyme activity; type: biochemical; details: geometric mean of 2-4 determinations unless otherwise indicated (b: ≧5 determinations; c: single determination)
Procedure, shortened: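 His6-tagged human PDE10A (aa 21–797) was expressed in insect cells and purified by Ni-NTA and size exclusion. The enzyme, at a level converting about 20% of 20 nM ^3H-cAMP, was incubated 30 min at 25°C in 50 mM Tris pH 7.5, 1.3 mM MgCl2, 0.01% Brij with inhibitors. The reaction was stopped with yttrium silicate SPA beads, read by scintillation, and IC50 determined.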

rat PDE10 enzyme, sequence (Q9QYJ6 24-794): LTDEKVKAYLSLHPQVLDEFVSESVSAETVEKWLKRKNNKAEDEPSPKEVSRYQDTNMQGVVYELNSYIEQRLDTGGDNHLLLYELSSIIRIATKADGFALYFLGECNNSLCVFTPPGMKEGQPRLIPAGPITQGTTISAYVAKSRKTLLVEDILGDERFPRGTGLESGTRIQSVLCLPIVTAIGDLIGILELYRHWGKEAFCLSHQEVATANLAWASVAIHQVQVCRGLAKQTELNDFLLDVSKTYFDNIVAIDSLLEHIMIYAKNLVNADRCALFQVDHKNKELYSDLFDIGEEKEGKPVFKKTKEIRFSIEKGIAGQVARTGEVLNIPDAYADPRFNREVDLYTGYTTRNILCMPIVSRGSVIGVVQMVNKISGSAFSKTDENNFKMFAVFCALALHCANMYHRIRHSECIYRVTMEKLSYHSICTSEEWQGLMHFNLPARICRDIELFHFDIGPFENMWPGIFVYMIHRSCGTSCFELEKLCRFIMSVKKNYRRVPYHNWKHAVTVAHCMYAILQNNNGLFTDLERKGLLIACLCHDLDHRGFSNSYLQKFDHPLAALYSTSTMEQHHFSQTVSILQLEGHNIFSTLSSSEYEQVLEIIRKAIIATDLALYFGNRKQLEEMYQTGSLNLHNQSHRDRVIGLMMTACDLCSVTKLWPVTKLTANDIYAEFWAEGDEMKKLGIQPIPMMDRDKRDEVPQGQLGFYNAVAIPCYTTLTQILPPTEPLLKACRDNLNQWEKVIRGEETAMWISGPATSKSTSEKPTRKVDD

SMILES	IC50 (rat PDE10 enzyme)	IC50 [1]
Cc1nc(-c2ccccc2F)c2c(N3Cc4c(cnn4C)C(C)C3)ncnn12 (stereo not shown) [Example 168]	6.1 nM	3.96 nM
Cc1nc([C@@H]2CCOC2)c2c(N3CCc4cnn(CC(C)C)c4C3)ncnn12 [Example 169, 7-methyl-4-[1-(2-methylpropyl)-1,4,5,7-tetrahydro-6H-pyrazolo[3,4-c]pyridin-6-yl]-5-[(3S)-tetrahydrofuran-3-yl]imidazo[5,1-f][1,2,4]triazine]	0.367 nM	0.755 nM
Cc1nc([C@@H]2CCOC2)c2c(N3CCc4cnn(CC(F)(F)F)c4C3)ncnn12 [Example 170, 7-methyl-5-[(3S)-tetrahydrofuran-3-yl]-4-[1-(2,2,2-trifluoroethyl)-1,4,5,7-tetrahydro-6H-pyrazolo[3,4-c]pyridin-6-yl]imidazo[5,1-f][1,2,4]triazine]	1.94 nM	2.55 nM
Cc1nc([C@@H]2CCOC2)c2c(N3CCc4cnn(CC5CCC5)c4C3)ncnn12 [Example 174, 4-[1-(cyclobutylmethyl)-1,4,5,7-tetrahydro-6H-pyrazolo[3,4-c]pyridin-6-yl]-7-methyl-5-[(3S)-tetrahydrofuran-3-yl]imidazo[5,1-f][1,2,4]triazine]	0.359 nM	0.345 nM
Cc1nc(-c2ccccc2F)c2c(N3CCc4cnn(CC5CCC5)c4C3)ncnn12 [Example 175, 4-[1-(cyclobutylmethyl)-1,4,5,7-tetrahydro-6H-pyrazolo[3,4-c]pyridin-6-yl]-5-(2-fluorophenyl)-7-methylimidazo[5,1-f][1,2,4]triazine]	0.878 nM	1.94 nM
